# Test results: patent US20090311237A1, “Combination therapy using a soluble hyaluronidase and a bisphosphonate” (priority 2008, published 2009)
# Assay: Urinary excretion of unchanged ZA in pigs
# Type: in vivo, pig
# Conditions: for Dose Amt 2 hr, Mean / Dose Amt 2 hr, Median: n 4; for mean percent of dose excreted unchanged in urine: pig, first 2 hours post dose
# Method: Following ZA dose administration, serial blood samples were collected via vascular access ports (VAPs) for serum preparation and determination of ZA concentrations. […] Urine samples were also collected to compare excretion characteristics between IV and SC routes of administration.
# Serum concentration of ZA was determined using a qualified LC-MS-MS assay after derivatization with diazomethane (Zhu, L S et al. (2006) Rapid Commun. Mass Spectrom. 20: 3421-3426; “Qualification Data of An LC-MS/MS Method for the Determination of Zoledronate in Porcine Serum”, MDS Pharma Services Study No. AA43671-01, Report Date 14 Sep. 2007). The assay range was from 2.0 to 400 ng/mL with a lower limit of quantitation (LLOQ) at 2.0 ng/mL. Urine concentration of ZA was determined by a similar well qualified LC-MS-MS method (“Qualification Data of An LC-MS/MS Method for the Determination of Zoledronate in Porcine Urine”, MDS Pharma Services Study No. AA43671-02, Report Date 14 Sep. 2007) with an assay LLOQ at 10 ng/mL.
# Amount of ZA excreted unchanged in urine was determined for the collection interval from dosing to 2-hour post dose and compared between dose routes and co-administration with rHuPH20.
# Urine sample volumes and concentration of ZA in the samples were used to calculate the amount of unchanged ZA excreted via the kidneys. Since continuous collection was halted at 2 hours post dose, the percent of administered ZA dose that were renally excreted was not determined. However, the percent of dose excreted within the 2-hour collection interval was estimated with the relationship that the systemically available SC ZA dose is equal to: […]
# [1] = Study Group 1, IV infusion, ZA […], dosing to 2 h post dose, n 3
# [2] = Study Group 2, SC, […] dose only
# [3] = Study Group 2, SC, n 5, dosing to 2 h post dose
# [4] = Study Group 3, SC with rHuPH20, […] dose only
# [5] = Study Group 3, SC with rHuPH20, n 4, dosing to 2 h post dose
compound,measurement,setting,value
"O=P(O)(O)C(O)(Cn1ccnc1)P(=O)(O)O [ZA, 1-hydroxy-2-(1H-imidazol-1-yl)ethylidene-1,1-bisphosphonic acid]","Dose Excreted, Mean",[1],11.40%
same,"Dose Excreted, Median",[1],10.71%
same,"Dose Amt 2 hr, Mean",[2],2.87 mg
same,"Dose Amt 2 hr, Median",[2],2.88 mg
same,"Dose Excreted, Mean",[3],9.45%
same,"Dose Excreted, Median",[3],6.73%
same,"Dose Amt 2 hr, Mean",[4],3.00 mg
same,"Dose Amt 2 hr, Median",[4],3.03 mg
same,"Dose Excreted, Mean",[5],10.66%
same,"Dose Excreted, Median",[5],12.04%
same,Dose Amt 2 hr (SC AUC(0-2 h) × CL × body weight),"pig 56, Study Group 3, SC with rHuPH20, ZA […]",3.06 mg
same,Dose Excreted (unchanged in urine),"pig 57, Study Group 1, IV infusion, ZA […], dosing to 2 h post dose",13.23%
same,Dose Amt 2 hr (SC AUC(0-2 h) × CL × body weight),"pig 58, Study Group 3, SC with rHuPH20, ZA […]",3.03 mg
same,Dose Excreted (unchanged in urine),"pig 58, Study Group 3, SC with rHuPH20, ZA […], dosing to 2 h post dose",0.41%
same,Dose Amt 2 hr (SC AUC(0-2 h) × CL × body weight),"pig 59, Study Group 2, SC, ZA […]",1.44 mg
same,Dose Excreted (unchanged in urine),"pig 59, Study Group 2, SC, ZA […], dosing to 2 h post dose",5.10%
same,Dose Amt 2 hr (SC AUC(0-2 h) × CL × body weight),"pig 60, Study Group 2, SC, ZA […]",3.28 mg
same,Dose Excreted (unchanged in urine),"pig 60, Study Group 2, SC, ZA […], dosing to 2 h post dose",6.73%
same,Dose Excreted (unchanged in urine),"pig 61, Study Group 1, IV infusion, ZA […], dosing to 2 h post dose",10.71%
same,Dose Amt 2 hr (SC AUC(0-2 h) × CL × body weight),"pig 62, Study Group 2, SC, ZA […]",2.42 mg
same,Dose Excreted (unchanged in urine),"pig 62, Study Group 2, SC, ZA […], dosing to 2 h post dose",20.08%
same,Dose Amt 2 hr (SC AUC(0-2 h) × CL × body weight),"pig 64, Study Group 3, SC with rHuPH20, ZA […]",2.86 mg
same,Dose Excreted (unchanged in urine),"pig 64, Study Group 3, SC with rHuPH20, ZA […], dosing to 2 h post dose",12.29%
same,Dose Amt 2 hr (SC AUC(0-2 h) × CL × body weight),"pig 66, Study Group 3, SC with rHuPH20, ZA […]",1.22 mg
same,Dose Excreted (unchanged in urine),"pig 66, Study Group 3, SC with rHuPH20, ZA […], dosing to 2 h post dose",18.13%
same,Dose Excreted (unchanged in urine),"pig 67, Study Group 1, IV infusion, ZA […], dosing to 2 h post dose",10.25%
same,Dose Amt 2 hr (SC AUC(0-2 h) × CL × body weight),"pig 68, Study Group 3, SC with rHuPH20, ZA […]",3.03 mg
same,Dose Excreted (unchanged in urine),"pig 68, Study Group 3, SC with rHuPH20, ZA […], dosing to 2 h post dose",11.79%
same,Dose Amt 2 hr (SC AUC(0-2 h) × CL × body weight),"pig 69, Study Group 2, SC, ZA […]",2.83 mg
same,Dose Excreted (unchanged in urine),"pig 69, Study Group 2, SC, ZA […], dosing to 2 h post dose",10.19%
same,Dose Amt 2 hr (SC AUC(0-2 h) × CL × body weight),"pig 70, Study Group 2, SC, ZA […]",2.93 mg
same,Dose Excreted (unchanged in urine),"pig 70, Study Group 2, SC, ZA […], dosing to 2 h post dose",5.17%
same,mean percent of dose excreted unchanged in urine,Study Group 1 (IV […]),11.40%
same,mean percent of dose excreted unchanged in urine,Study Group 2 (SC ZA without rHuPH20),9.45%
